Results as given in the NIST ThermoML archive (doi:10.1021/je1001413).

Conditions: Liquid, Vibrating tube method

CC(C)CCCCCCCOC(=O)c1ccccc1C(=O)OCCCCCCCC(C)C
Conditions	mass density [kg/m3]
343.15 K, 100 kPa	931.2
343.15 K, 220 kPa	931.3
343.15 K, 430 kPa	931.5
343.15 K, 610 kPa	931.6
343.15 K, 810 kPa	931.8
343.15 K, 1000 kPa	931.9
343.15 K, 2000 kPa	932.6
343.15 K, 3000 kPa	933.3
343.15 K, 3980 kPa	934
343.15 K, 5010 kPa	934.6
343.15 K, 5980 kPa	935.3
343.15 K, 7000 kPa	936
343.15 K, 7990 kPa	936.6
343.15 K, 9020 kPa	937.3
343.15 K, 9980 kPa	937.9
343.15 K, 15010 kPa	941.2
343.15 K, 19990 kPa	944.3
343.15 K, 25010 kPa	947.4
343.15 K, 29980 kPa	950.4
343.15 K, 35030 kPa	953.3
343.15 K, 40030 kPa	956.1
343.15 K, 45010 kPa	958.7
343.15 K, 50050 kPa	961.4
343.15 K, 55000 kPa	964
343.15 K, 60000 kPa	966.5
343.15 K, 65020 kPa	968.9
353.15 K, 100 kPa	924.2
353.15 K, 200 kPa	924.3
353.15 K, 410 kPa	924.5
353.15 K, 630 kPa	924.6
353.15 K, 800 kPa	924.8
353.15 K, 1010 kPa	924.9
353.15 K, 2000 kPa	925.6
353.15 K, 3000 kPa	926.3
353.15 K, 3980 kPa	927
353.15 K, 4990 kPa	927.7
353.15 K, 6000 kPa	928.4
353.15 K, 7000 kPa	929.1
353.15 K, 8010 kPa	929.8
353.15 K, 9000 kPa	930.5
353.15 K, 10010 kPa	931.2
353.15 K, 15040 kPa	934.6
353.15 K, 20000 kPa	937.9
353.15 K, 24970 kPa	941
353.15 K, 29980 kPa	944.1
353.15 K, 35010 kPa	947.1
353.15 K, 40000 kPa	950
353.15 K, 45000 kPa	952.7
353.15 K, 49990 kPa	955.5
353.15 K, 55000 kPa	958.1
353.15 K, 60010 kPa	960.7
353.15 K, 65020 kPa	963.2
363.15 K, 100 kPa	917.2
363.15 K, 200 kPa	917.3
363.15 K, 420 kPa	917.4
363.15 K, 600 kPa	917.6
363.15 K, 800 kPa	917.7
363.15 K, 990 kPa	917.9
363.15 K, 2000 kPa	918.6
363.15 K, 2980 kPa	919.4
363.15 K, 3960 kPa	920.1
363.15 K, 4970 kPa	920.9
363.15 K, 5990 kPa	921.6
363.15 K, 7020 kPa	922.3
363.15 K, 7980 kPa	923
363.15 K, 9030 kPa	923.8
363.15 K, 10000 kPa	924.5
363.15 K, 15000 kPa	928
363.15 K, 19990 kPa	931.4
363.15 K, 25010 kPa	934.7
363.15 K, 30020 kPa	937.9
363.15 K, 34980 kPa	940.9
363.15 K, 39990 kPa	943.9
363.15 K, 44980 kPa	946.8
363.15 K, 49990 kPa	949.6
363.15 K, 55000 kPa	952.3
363.15 K, 60040 kPa	955
363.15 K, 64990 kPa	957.6
